Reference: EP4640206A1, “NISIN FOR INHIBITING BIOFILMS” (SkyLab AG, priority 2024, dated 2025)

Tested on: S.mutans biofilms
Experiment: Follow-up observation of pH of washes of a laboratory model of S. mutans biofilms in 10% sucrose
Type: cell-based, Streptococcus mutans
Method: Example No. 2. Follow-up observation of pH of washes of a laboratory model of S. mutans biofilms.
Inoculum of S.mutans control strain was prepared from an ampoule. The ampoule with the dried strain was opened sterilely over a drier or a tray. The upper end of the ampoule was heated on a burner flame, and paraffin was removed; then a piece of sterile absorbent cotton moistened in sterile water was carefully touched to the pulled end of the ampoule so that a small crack appeared, and the same wet cotton was passed around the tip of the ampoule. After the crack had formed, the end of the ampoule was removed with a light blow of tweezers. After opening the ampoule, 0.3-0.5 ml of heart-brain broth was sterilely poured in. After dissolution of the dry contents, the ampoule was transferred with a Pasteur pipette into tubes with 2 ml of heart-brain broth and grown at 37°C for 2 hours in a thermostat in 5% CO2 medium. To restore full viability, 1-2 passages on nutrient media appropriate for the microbes of the species were required. 2 Petri dishes with agar containing 5% horse blood were seeded with 0.1 ml of a 2-hour culture on heart-brain broth of the strain. Petri dishes were incubated at 37°C for 18 hours in an incubator containing 5% CO2. Gram stained smears were prepared from the grown colonies to assess the tinctorial, phenotypic properties and homogeneity of bacteria. Species membership was confirmed using MALDI-TOF reference bases.
Aqueous solutions of nisin in concentrations of 0.004 and 0.008% were taken as the working solutions for testing. […] Distilled water was used as a negative control. […] Urea was chosen due to its ability to alkalinize the environment in bacterial biofilms (Jadon et al., 2018). During the assay, a 10% sucrose solution was used, which is known to be readily metabolized by cariogenic bacteria to acid, thus contributing to the overall acidification of the medium.
The contents of the wells were extracted using an aspirator. All 6 wells of the first row were filled with 1 ml of deionized water and left for 5 min. The water was extracted with an aspirator; 1 ml of the test solution was added into the wells; in 1 min the component was removed, the wells were glazed for 1 min with deionized water, then it was removed. 250 µl of 10% sucrose was added to the wells and biofilms were scraped off the well walls with a disposable plastic loop. The resulting suspension was transferred by pipette into three Eppendorf tubes: contents of wells 1 and 2 into Eppendorf tube No. 1, contents of wells 3 and 4 into Eppendorf tube No. 2, contents of wells 5 and 6 into Eppendorf tube No. 3; next, the measurement of pH started immediately. Time points of the measurement are: 0, 1, 2, 3, 4, 5, 6, 7, 8, 9, 10, 15, 20, 30 min. After the test was finished, the electrode was washed and the described procedure was repeated for the next solution under study.

## NC(N)=O [Urea, reference compound]
Urea 0.5%, 10% sucrose, 0 min
  pH of mechanically disrupted S.mutans biofilms: 6.33±0.03
Urea 0.5%, 10% sucrose, 1 min
  pH of mechanically disrupted S.mutans biofilms: 6.32±0.006
Urea 0.5%, 10% sucrose, 1 min vs previous time point
  pH change (in brackets), S.mutans biofilms: -0.01
Urea 0.5%, 10% sucrose, 2 min
  pH of mechanically disrupted S.mutans biofilms: 6.22±0.01
Urea 0.5%, 10% sucrose, 2 min vs previous time point
  pH change (in brackets), S.mutans biofilms: -0.1
Urea 0.5%, 10% sucrose, 3 min
  pH of mechanically disrupted S.mutans biofilms: 6.15±0.006
Urea 0.5%, 10% sucrose, 3 min vs previous time point
  pH change (in brackets), S.mutans biofilms: -0.07
Urea 0.5%, 10% sucrose, 4 min
  pH of mechanically disrupted S.mutans biofilms: 6.09±0.006
Urea 0.5%, 10% sucrose, 4 min vs previous time point
  pH change (in brackets), S.mutans biofilms: -0.06
Urea 0.5%, 10% sucrose, 5 min
  pH of mechanically disrupted S.mutans biofilms: 6.06±0
Urea 0.5%, 10% sucrose, 5 min vs previous time point
  pH change (in brackets), S.mutans biofilms: -0.03
Urea 0.5%, 10% sucrose, 6 min
  pH of mechanically disrupted S.mutans biofilms: 6.04±0
Urea 0.5%, 10% sucrose, 6 min vs previous time point
  pH change (in brackets), S.mutans biofilms: -0.02
Urea 0.5%, 10% sucrose, 7 min
  pH of mechanically disrupted S.mutans biofilms: 6.02±0.006
Urea 0.5%, 10% sucrose, 7 min vs previous time point
  pH change (in brackets), S.mutans biofilms: -0.02
Urea 0.5%, 10% sucrose, 8 min
  pH of mechanically disrupted S.mutans biofilms: 6.0±0.01
Urea 0.5%, 10% sucrose, 8 min vs previous time point
  pH change (in brackets), S.mutans biofilms: -0.02
Urea 0.5%, 10% sucrose, 9 min
  pH of mechanically disrupted S.mutans biofilms: 5.93±0.02
Urea 0.5%, 10% sucrose, 9 min vs previous time point
  pH change (in brackets), S.mutans biofilms: -0.07
Urea 0.5%, 10% sucrose, 10 min
  pH of mechanically disrupted S.mutans biofilms: 5.83±0.02
Urea 0.5%, 10% sucrose, 10 min vs previous time point
  pH change (in brackets), S.mutans biofilms: -0.1
Urea 0.5%, 10% sucrose, 15 min
  pH of mechanically disrupted S.mutans biofilms: 5.74±0.02
Urea 0.5%, 10% sucrose, 15 min vs previous time point
  pH change (in brackets), S.mutans biofilms: -0.09
Urea 0.5%, 10% sucrose, 20 min
  pH of mechanically disrupted S.mutans biofilms: 5.46±0.02
Urea 0.5%, 10% sucrose, 20 min vs previous time point
  pH change (in brackets), S.mutans biofilms: -0.28
Urea 0.5%, 10% sucrose, 30 min
  pH of mechanically disrupted S.mutans biofilms: 5.24±0.006
Urea 0.5%, 10% sucrose, 30 min vs previous time point
  pH change (in brackets), S.mutans biofilms: -0.22
Urea 0.5%, 10% sucrose, compared to the initial value
  Value of pH decrease within 30 min. of measurement (%): -17.22%
Urea in concentration of 0.5%, compared to the negative control
  ability to stabilize pH in monospecies cariogenic biofilms: no ability to stabilize pH
